Data: US11912723B2, “KRAS modulators and uses thereof” (Quanta Therapeutics, Inc., priority 2022, dated 2024)

Assays:
KRAS G12D/RAF1 = target: T1, KRAS G12D/RAF1 (Homo sapiens, UniProt P01116, G12D); test: Protein-protein interaction (PPI) HTRF assay KRAS G12D/RAF1; type: binding; settings: KRAS G12D/RAF1, GppNHp-loaded KRAS; 30 minutes pre-incubation
T1 construct: KRAS (1-169) proteins were expressed in E. coli at 18° C; His6-MBP (N, cleaved yes); made in house; host or cells: E. coli
Summary of the method: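 IC50 values come from the 665/615 HTRF ratio, scaled between no-compound (0% inhibition) and untagged RAF1 (100%). GppNHp-exchanged, biotinylated RAS (1-169) solution at 16 nM met compound for 30 min at room temperature. Then 16 nM His-tagged RAF1 (52-131) donor solution was added and incubated 1 h.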

[1] = system: AGS (KRAS G12D) cells, phospho-ERK; test: pERK In Cell Western (ICW) assay (Method B); type: cell-based; settings: 3 hours
Summary of the method: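 AGS cells seeded at 5,000/well, grown overnight, then treated 3 h at 37 °C with ½-log 10-point dilutions (top 10 μM). Fixed cells stained for phospho-ERK, normalized to DRAQ5 DNA signal and to DMSO control; IC50 from 4-parameter variable-slope fit.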

T1 sequence (P01116 1-169 isoform P01116-2 G12D): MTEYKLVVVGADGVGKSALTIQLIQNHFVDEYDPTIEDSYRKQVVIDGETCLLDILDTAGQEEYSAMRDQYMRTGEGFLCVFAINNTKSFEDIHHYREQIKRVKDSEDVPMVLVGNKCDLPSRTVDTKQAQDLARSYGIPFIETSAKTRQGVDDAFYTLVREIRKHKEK

Compound	IC50 (KRAS G12D/RAF1)	IC50 ([1]; Homo sapiens)	IC50 [1]
N#CNC1CCCN(c2nc(OC[C@@]34CCCN3C[C@H](F)C4)nc3c2COC2(CCc4c(Cl)cccc42)C3)C1 (stereo partly drawn) [Compound 29, [1-[4′-chloro-2-[[(2R,8S)-2-fluoro-1,2,3,5,6,7-hexahydropyrrolizin-8-yl]methoxy]spiro[5,8-dihydropyrano[4,3-d]pyrimidine-7,1′-indane]-4-yl]-3-piperidyl]cyanamide]	10 to 100 µM	1 to 10 µM	
CN(C)C(=O)c1cc2n(n1)CCCN(c1nc(OC[C@@]34CCCN3C[C@H](F)C4)nc3c1CN(C)C1(CCCc4ccc(O)cc41)C3)C2 (stereo partly drawn) [Compound 39, 5-[7′-hydroxy-6-methyl-2-[[(2R,8S)-2-fluoro-1,2,3,5,6,7-hexahydropyrrolizin-8-yl]methoxy]spiro[5,8-dihydropyrido[4,3-d]pyrimidine-7,1′-tetralin]-4-yl]-N,N-dimethyl-4,6,7,8-tetrahydropyrazolo[1,5-a][1,4]diazepine-2-carboxamide]	> 100 µM	1 to 10 µM	
CN(C)C(=O)c1cc2n(n1)CCCN(c1nc(OC[C@@]34CCCN3C[C@H](F)C4)nc3c1CN(C)[C@@]1(CCCc4ccc(O)cc41)C3)C2 [Compound 39A, 5-[(7S)-2-[[(2R,8S)-2-fluoro-1,2,3,5,6,7-hexahydropyrrolizin-8-yl]methoxy]-7′-hydroxy-6-methyl-spiro[5,8-dihydropyrido[4,3-d]pyrimidine-7,1′-tetralin]-4-yl]-N,N-dimethyl-4,6,7,8-tetrahydropyrazolo[1,5-a][1,4]diazepine-2-carboxamide]	10 to 100 µM	0.1 to 1 µM	
Cc1c(C(=O)N(C)C)nn2c1CN(c1nc(OC[C@@]34CCCN3C[C@H](F)C4)nc3c1CO[C@@]1(CCc4c(Cl)cccc41)C3)CCC2 [Compound 42, 5-[(7S)-4′-chloro-2-[[(2R,8S)-2-fluoro-1,2,3,5,6,7-hexahydropyrrolizin-8-yl]methoxy]spiro[5,8-dihydropyrano[4,3-d]pyrimidine-7,1′-indane]-4-yl]-N,N,3-trimethyl-4,6,7,8-tetrahydropyrazolo[1,5-a][1,4]diazepine-2-carboxamide]	10 to 100 µM	0.1 to 1 µM	
O=C(c1nn2c(c1Cl)CN(c1nc(OC[C@@]34CCCN3C[C@H](F)C4)nc3c1CO[C@@]1(CCc4c(Cl)cccc41)C3)CCC2)N1CCOCC1 [Compound 45, [3-chloro-5-[(7S)-4′-chloro-2-[[(2R,8S)-2-fluoro-1,2,3,5,6,7-hexahydropyrrolizin-8-yl]methoxy]spiro[5,8-dihydropyrano[4,3-d]pyrimidine-7,1′-indane]-4-yl]-4,6,7,8-tetrahydropyrazolo[1,5-a][1,4]diazepin-2-yl]-morpholino-methanone]	10 to 100 µM	0.1 to 1 µM	
C[C@@]1(NC#N)CCCN(c2nc(OC[C@@]34CCCN3C[C@H](F)C4)nc3c2COC2(CCc4c(Cl)cccc42)C3)C1 (stereo partly drawn) [Compound 46A, [(3R)-1-[(7*)-4′-chloro-2-[[(2R,8S)-2-fluoro-1,2,3,5,6,7-hexahydropyrrolizin-8-yl]methoxy]spiro[5,8-dihydropyrano[4,3-d]pyrimidine-7,1′-indane]-4-yl]-3-methyl-3-piperidyl]cyanamide; 2,2,2-trifluoroacetic acid]	10 to 100 µM		> 10 µM
CN(C)C(=O)c1nn2c(c1Cl)CN(c1nc(OCC3(CN4CCOCC4)CC3)nc3c1CO[C@@]1(CCc4c(Cl)cccc41)C3)CCC2 [Compound 47, 3-chloro-5-[(7S)-4′-chloro-2-[[1-(morpholinomethyl)cyclopropyl]methoxy]spiro[5,8-dihydropyrano[4,3-d]pyrimidine-7,1′-indane]-4-yl]-N,N-dimethyl-4,6,7,8-tetrahydropyrazolo[1,5-a][1,4]diazepine-2-carboxamide]	> 100 µM	1 to 10 µM	
O=C(c1nn2c(c1Cl)CN(c1nc(OC[C@@]34CCCN3C[C@H](F)C4)nc3c1CO[C@@]1(CCc4c(Cl)cccc41)C3)CCC2)N1CCNCC1 [Compound 49, [3-chloro-5-[(7S)-4′-chloro-2-[[(2R,8S)-2-fluoro-1,2,3,5,6,7-hexahydropyrrolizin-8-yl]methoxy]spiro[5,8-dihydropyrano[4,3-d]pyrimidine-7,1′-indane]-4-yl]-4,6,7,8-tetrahydropyrazolo[1,5-a][1,4]diazepin-2-yl]-piperazin-1-yl-methanone]	10 to 100 µM	0.1 to 1 µM	
CN1CCN(C(=O)c2nn3c(c2Cl)CN(c2nc(OC[C@@]45CCCN4C[C@H](F)C5)nc4c2CO[C@@]2(CCc5c(Cl)cccc52)C4)CCC3)CC1 [Compound 50, [3-chloro-5-[(7S)-4′-chloro-2-[[(2R,8S)-2-fluoro-1,2,3,5,6,7-hexahydropyrrolizin-8-yl]methoxy]spiro[5,8-dihydropyrano[4,3-d]pyrimidine-7,1′-indane]-4-yl]-4,6,7,8-tetrahydropyrazolo[1,5-a][1,4]diazepin-2-yl]-(4-methylpiperazin-1-yl)methanone]	10 to 100 µM	0.1 to 1 µM	
CN(C)C(=O)c1nn2c(c1Cl)CN(c1nc(OC[C@@]34CCCN3C[C@H](F)C4)nc3c1CN(C)[C@@]1(CCc4ccccc41)C3)CCC2 [Compound 53, 3-chloro-5-[(7S)-2-[[(2R,8S)-2-fluoro-1,2,3,5,6,7-hexahydropyrrolizin-8-yl]methoxy]-6-methyl-spiro[5,8-dihydropyrido[4,3-d]pyrimidine-7,1′-indane]-4-yl]-N,N-dimethyl-4,6,7,8-tetrahydropyrazolo[1,5-a][1,4]diazepine-2-carboxamide]	10 to 100 µM	0.01 to 0.1 µM	
CN(C)C(=O)c1nn2c(c1Cl)CN(c1nc(OC[C@@]34CCCN3C[C@H](F)C4)nc3c1CN(C)[C@@]1(CCc4c(Cl)cccc41)C3)CCC2 [Compound 55, 3-chloro-5-((S)-4-chloro-2′-(((2R,7aS)-2-fluorotetrahydro-1H-pyrrolizin-7a(5H)-yl)methoxy)-6′-methyl-2,3,5′,8′-tetrahydro-6′H-spiro[indene-1,7′-pyrido[4,3-d]pyrimidin]-4′-yl)-N,N-dimethyl-5,6,7,8-tetrahydro-4H-pyrazolo[1,5-a][1,4]diazepine-2-carboxamide]	10 to 100 µM	0.1 to 1 µM	
CN1Cc2c(nc(OC[C@@]34CCCN3C[C@H](F)C4)nc2N2CCC[C@]3(C2)NC(=O)NC3=O)C[C@]12CCc1ccccc12 [Compound 60, (5R)-9-[(7S)-2-[[(2R,8S)-2-fluoro-1,2,3,5,6,7-hexahydropyrrolizin-8-yl]methoxy]-6-methyl-spiro[5,8-dihydropyrido[4,3-d]pyrimidine-7,1′-indane]-4-yl]-1,3,9-triazaspiro[4.5]decane-2,4-dione]	10 to 100 µM	> 10 µM	
CN(C)C(=O)c1nn2c(c1Cl)CN(c1nc(OC[C@@]34CCCN3C[C@H](F)C4)nc3c1CN(C)[C@@]1(CCc4c(F)ccc(F)c41)C3)CCC2 [Compound 61, 3-chloro-5-[(7S)-4′,7′-difluoro-2-[[(2R,8S)-2-fluoro-1,2,3,5,6,7-hexahydropyrrolizin-8-yl]methoxy]-6-methyl-spiro[5,8-dihydropyrido[4,3-d]pyrimidine-7,1′-indane]-4-yl]-N,N-dimethyl-4,6,7,8-tetrahydropyrazolo[1,5-a][1,4]diazepine-2-carboxamide]	10 to 100 µM	0.01 to 0.1 µM	
CN(C)C(=O)c1nn2c(c1Cl)CN(c1nc(OC[C@@]34CCCN3C[C@H](F)C4)nc3c1CN(C)[C@@]1(CCc4cccc(F)c41)C3)CCC2 [Compound 63, 3-chloro-5-[(7S)-7′-fluoro-2-[[(2R,8S)-2-fluoro-1,2,3,5,6,7-hexahydropyrrolizin-8-yl]methoxy]-6-methyl-spiro[5,8-dihydropyrido[4,3-d]pyrimidine-7,1′-indane]-4-yl]-N,N-dimethyl-4,6,7,8-tetrahydropyrazolo[1,5-a][1,4]diazepine-2-carboxamide]	10 to 100 µM	0.01 to 0.1 µM	
CN(C)C(=O)c1nn2c(c1Cl)CN(c1nc(OC[C@@]34CCCN3C[C@H](F)C4)nc3c1CN(C)[C@@]1(CCCc4ccccc41)C3)CCC2 [Compound 64, 3-chloro-5-[(7S)-2-[[(2R,8S)-2-fluoro-1,2,3,5,6,7-hexahydropyrrolizin-8-yl]methoxy]-6-methyl-spiro[5,8-dihydropyrido[4,3-d]pyrimidine-7,1′-tetralin]-4-yl]-N,N-dimethyl-4,6,7,8-tetrahydropyrazolo[1,5-a][1,4]diazepine-2-carboxamide]	10 to 100 µM	0.01 to 0.1 µM	
CN(C)C(=O)c1nn2c(c1Cl)CN(c1nc(OC[C@@]34CCCN3C[C@H](F)C4)nc3c1CN(C)[C@@]1(CCc4c(F)cccc41)C3)CCC2 [Compound 65, 3-chloro-5-[(7S)-4′-fluoro-2-[[(2R,8S)-2-fluoro-1,2,3,5,6,7-hexahydropyrrolizin-8-yl]methoxy]-6-methyl-spiro[5,8-dihydropyrido[4,3-d]pyrimidine-7,1′-indane]-4-yl]-N,N-dimethyl-4,6,7,8-tetrahydropyrazolo[1,5-a][1,4]diazepine-2-carboxamide]	10 to 100 µM	0.01 to 0.1 µM	
CN(C)C(=O)c1nn2c(c1Cl)CN(c1nc(OC[C@@]34CCCN3C[C@H](F)C4)nc3c1CN(C)[C@@]1(CCc4cccc(Cl)c41)C3)CCC2 [Compound 69, 3-chloro-5-[(7S)-7′-chloro-2-[[(2R,8S)-2-fluoro-1,2,3,5,6,7-hexahydropyrrolizin-8-yl]methoxy]-6-methyl-spiro[5,8-dihydropyrido[4,3-d]pyrimidine-7,1′-indane]-4-yl]-N,N-dimethyl-4,6,7,8-tetrahydropyrazolo[1,5-a][1,4]diazepine-2-carboxamide]	10 to 100 µM	0.01 to 0.1 µM	
